In PMC7939384, “In crystallo screening for proline analog inhibitors of the proline cycle enzyme PYCR1” (The Journal of Biological Chemistry, 2021):
Several values for one entry are separate records, joined by “and”; a condition that tells them apart may be missing. Equal entries are not always repeated.

What was measured:
human PYCR1 [1] = target: T1, human PYCR1 (Homo sapiens, UniProt P32322); assay: biochemical; details: for Ki: competitive with P5C, NADH fixed 175 μM; for kcat: kcat for L-P5C at fixed NADH 175 μM, global fit of the data set with this analog
T1 sequence (P32322 1-300): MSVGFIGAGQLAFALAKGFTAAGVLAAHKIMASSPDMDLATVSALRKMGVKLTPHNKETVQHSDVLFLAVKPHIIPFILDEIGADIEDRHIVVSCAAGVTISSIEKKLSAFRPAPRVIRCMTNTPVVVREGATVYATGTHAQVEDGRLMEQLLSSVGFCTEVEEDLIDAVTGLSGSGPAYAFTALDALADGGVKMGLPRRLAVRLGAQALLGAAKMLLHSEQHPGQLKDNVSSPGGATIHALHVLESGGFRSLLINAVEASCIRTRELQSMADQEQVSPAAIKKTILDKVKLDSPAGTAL
Procedure: (§1) Over two dozen proline analogs (Fig. 2) were screened using electron density from X-ray crystallography as the readout for binding to human PYCR1. […] Because the compounds bind in the P5C/proline site, the mechanism of inhibition was assumed to be competitive with P5C. Therefore, steady-state kinetic measurements were performed with L-P5C as the variable substrate (0-1000 μM) and NADH fixed (175 μM) (Fig. 3). For each compound, the data were fit globally to a competitive inhibition model (Equation 1) to obtain an inhibition constant, Ki.
B, THFA. C, CPC. D, T4C. E, T2C. F, NFLP. The data were measured in 50 mM Tris (pH 7.5) with 1 mM EDTA disodium salt while holding NADH fixed at 175 μM and varying D,L-P5C (0–2000 μM). The concentration of the substrate L-P5C was considered to be half the total D,L-P5C concentration added to the assays. Curves represent global fits of the data to a competitive inhibition model showing initial velocity in units of µM [NAD^+] s^−1 as a function of L-P5C concentration (µM).
A C-terminal truncation variant of human PYCR1, which includes residues 1–300 of the full-length 319-residue enzyme, was used for kinetics and X-ray crystallography ([18]). PYCR1 was overexpressed in Escherichia coli BL21 (DE3) competent cells and purified using methods similar to those previously reported ([18]). Harvested cells were lysed via sonication in a mixture containing DNase I, lysozyme, and 0.2 mM phenylmethylsulfonyl fluoride protease inhibitor, and then the insoluble material was removed via centrifugation at 16,000 rpm for 1 h at 4°C. The resulting lysate was purified by gravity-flow chromatography on a column containing Ni^2+–nitrilotriacetic acid resin (Qiagen) pre-equilibrated with binding buffer consisting of 50 mM HEPES, 300 mM NaCl, 10 mM imidazole, and 5% (w/v) glycerol at pH 7.8 (buffer A). The column was washed with buffer A supplemented with 30 mM imidazole, and then the bound protein was eluted with buffer A supplemented with 300 mM imidazole. Elution fractions containing PYCR1 were identified by SDS-PAGE and prepared for further purification by size-exclusion chromatography by dialyzing into 300 mM NaCl, 2% (w/v) glycerol, and 50 mM HEPES at pH 7.5. Size-exclusion chromatography was performed on a HiLoad 16/600 Superdex 200 column equilibrated with 50 mM HEPES, pH 7.8, 300 mM NaCl, and 5% (w/v) glycerol. Purified PYCR1 was concentrated to 8 mg/ml and stored at 4°C for subsequent crystallization trials.
Kinetic measurements were performed in a BioTek Epoch 2 microplate spectrophotometer using Corning 96-well UV-transparent microplates. Activity assays were performed by monitoring the consumption of NADH at 340 nm (ε340 = 6220 M^−1 cm^−1) using P5C as the substrate. D,L-P5C was synthesized as described previously ([45]), quantified using o-aminobenzaldehyde (o-AB), and stored in 1 M HCl at 4°C. Neutralization of D,L-P5C to pH 7.5 was performed immediately prior to assays using 1 M Tris (pH 7.5) and 6 M NaOH. The concentration of the substrate L-P5C was assumed to be half the total D,L-P5C concentration added to the assays.
The following microplate protocol was employed. Substrate mixtures containing P5C, NADH, EDTA, and Tris buffer were prepared in a deep well block for each P5C concentration. Mixtures containing enzyme and various concentrations of the inhibitor were prepared in microcentrifuge tubes and incubated on ice in buffer containing 50 mM HEPES pH 7.8, 300 mM NaCl, and 5% (w/v) glycerol. The final concentration of PYCR1 in the assay was 6.25 nM. Twenty μl of the enzyme-analog mixture was added to microplate wells using a single-channel pipette, and then the reaction was initiated by addition of 180 μl of the substrate mixtures using a multi-channel pipettor. The reaction traces were followed for 35 min.

human PYCR1 [2] = target: T1, human PYCR1; assay: In crystallo screening: electron density as readout for binding (crystal soaking); set-up: includes residues 1–300 of the full-length 319-residue enzyme; inferred from the Ni-NTA purification; made in house; host or cells: Escherichia coli BL21 (DE3); details: apo crystals soaked with 25–500 mM of the proline analog
Procedure: as §1
06594), D,L-thiazolidine-2-carboxylate (Sigma-Aldrich no. 467995), L-thiazolidine-4-carboxylate (Sigma-Aldrich no. T27502), 1,3-thiazolidine-2,4-dicarboxylate (Sigma-Aldrich no. CDS000186), dimethyl 1,3-thiazolidine-2,4-dicarboxylate (Sigma-Aldrich no. […] 287067), L-4-hydroxyproline methyl ester (hydrochloride) (Sigma-Aldrich no. 30681), cis-4-hydroxy-D-proline methyl ester (hydrochloride) (Sigma-Aldrich no. […] 441562), L-(+)-mandelic acid (Sigma-Aldrich no. 63460), sodium-L-lactate (Sigma-Aldrich no. 71718), D-cycloserine (Sigma-Aldrich no. C6880). The proline analogs were added to apo crystals during cryoprotection by soaking the crystals in the reservoir solution supplemented with cryoprotectant (PEG 200 for the PEG 3350 form; glycerol for the NaCl form) and then in the same cryobuffer supplemented with 25–500 mM of the proline analog. Following equilibration, the crystals were harvested and rapidly plunged into liquid nitrogen.
The complex of PYCR1 with THFA was obtained by soaking a C2 crystal (NaCl form) for 15 min in a cryo-buffer consisting of the reservoir solution (3 M NaCl and 0.1 M HEPES at pH 7.5–8.0) supplemented with 30% glycerol and 50 mM THFA, followed by flash-cooling in liquid nitrogen. Crystals of the NFLP complex were prepared by soaking P2_12_12 crystals in the reservoir solution (250 mM Li2SO4, 19% (w/v) PEG 3350, 0.1 M HEPES, pH 7.5) supplemented with 20% (v/v) PEG 200 and 100 mM NFLP. The complexes with L-T2C and L-T4C were prepared similarly, except the Li2SO4 concentration was reduced to 25 mM and 50 mM of either L-T4C or D,L-T2C was included.

PYCR1 = tested on: PYCR1; set-up: method as in PMID 31362921; details: reported IC50 against PYCR1; cited from earlier work
[3] = Ki, 50 mM Tris pH 7.5, global fit

SMILES	Ki (human PYCR1 [1]; Ki (estimated), rounded values)	Ki (human PYCR1 [1]; [3])	kcat (human PYCR1 [1])	electron density evidence for binding (in words) (human PYCR1 [2])	inhibition of PYCR1 (in words) (human PYCR1 [1])	IC50 (PYCR1)
O=C(O)C1CCCC1 [CPC, cyclopentanecarboxylate]	> 1000 µM and 1000 µM	1190 ± 61 µM	35 ± 1 s⁻¹	–	–	–
O=C(O)C1NCCS1 [L-T2C, L-thiazolidine-2-carboxylate]	~400 µM	438 ± 29 µM	37 ± 1 s⁻¹	Electron density evidence for binding was observed	–	–
O=C(O)[C@@H]1CSCN1 [L-T4C, L-thiazolidine-4-carboxylate]	~600 µM	598 ± 39 µM	54 ± 2 s⁻¹	Electron density evidence for binding was observed	–	–
CC(=O)N1CCC[C@H]1C(=O)O [N-acetyl L-proline]	–	–	–	–	did not inhibit PYCR1	–
O=C(O)[C@@H]1CCCO1 [THFA, (S)-(−)-tetrahydro-2-furoic acid]	> 1000 µM and 2000 µM	2250 ± 121 µM	69 ± 1 s⁻¹	Electron density evidence for binding was observed	only negligibly inhibits PYCR1	–
C#CCN(C)Cc1ccccc1 [pargyline]	–	–	–	–	–	200 µM
